Key:
[1] = biological target: T1, JAK1 kinase domain (JH1) (Homo sapiens, UniProt P23458); assay: HTRF-based selectivity assay, JAK1 catalytic domain; assay type: biochemical; details: 21.43 μM ATP, read-out: JAK-JHI (IC50)
T1 construct: recombinant purified His or GST-tagged catalytic domain for each enzyme; made in house
How it was run: (§1)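 Recombinant His- or GST-tagged JAK catalytic domains (JAK1 80.6, JAK2 2.1, JAK3 171.8 ng/mL) preincubated with compound 5-20 min at RT, then ATP (JAK1 21.43, JAK2 14.7, JAK3 2.12 μM) plus peptide substrate (454.7, 200, 257.4 nM respectively) added. HEPES buffer with MgCl2, 60 min at 26.5 °C; HTRF read-out.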

[2] = biological target: T2, JAK2 kinase domain (JH1) (Homo sapiens, UniProt O60674); assay: HTRF-based selectivity assay, JAK2 catalytic domain; assay type: biochemical; details: 14.7 μM ATP
T2 construct: recombinant purified His or GST-tagged catalytic domain for each enzyme; made in house
How it was run: as §1

[3] = biological target: T3, JAK3 kinase domain (JH1) (Homo sapiens, UniProt P52333); assay: HTRF-based selectivity assay, JAK3 catalytic domain; assay type: biochemical; details: 2.12 μM ATP
T3 construct: recombinant purified His or GST-tagged catalytic domain for each enzyme; purchased Carna biosciences 08-046
Method: Example B-2: HTRF-Based Selectivity Assay
The ability of compounds to inhibit the activity of JAK1, JAK2, JAK3 and TYK2 is measured using a recombinant purified His or GST-tagged catalytic domain for each enzyme (JAK1, JAK2 and TYK2 are generated in-house; JAK3 was purchased from Carna biosciences, Cat #08-046) in an HTRF format biochemical assay. The reactions employs a commercial peptide substrate from Cisbio (Cat #62TK0PEC). The basic assay protocol is as follows: first, 2.5 μL of diluted compounds (4×) in DMSO are dispensed into a 384-well Optiplate. Next, 2.5 μL of enzyme (final concentrations for enzymes are: TYK2—700 ng/mL, JAK1—80.6 ng/mL, JAK2—2.1 ng/mL and JAK3—171.8 ng/mL) is added and incubated at RT for 5-20 min. Finally, 5 μl of mixture of 2×ATP [Final concentration 20 μM for TYK2, 21.43 μM for JAK1, 14.7 μM for JAK2 and 2.12 μM for JAK3]+2× Substrate [Final concentration 217 nM for TYK2, 454.7 nM for JAK1, 200 nM for JAK2 and 257.4 nM for JAK3] is added to 384 well Optiplate. Composition of Kinase assay buffer used in the assay is as follows: HEPES 50 mM, EGTA 1 mM, MgCl2 10 mM, DTT 2 mM, Tween-20 0.01% and water. Then the plates are shaken and then incubated at 26.5° C. for 60 min.

[4] = test system: IL-2-stimulated HEK-Blue IL-2 reporter cells; assay: HEK-Blue IL-2 reporter assay (STAT5-inducible SEAP) for determining selectivity; assay type: cell-based; details: 4 ng/mL human recombinant IL-2, 24 hours
How it was run: (§2)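 Cells were plated for 20-22 h, then pretreated with serially diluted compound for 60 min. They were stimulated for 24 h with 4 ng/mL human recombinant IL-2 or 50 ng/mL human recombinant IFNγ, and SEAP induction was read with QUANTI-Blue.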

[5] = test system: TYK2 pseudokinase (JH2); IFNα-stimulated HEK-Blue IFNα/β cells; assay: HEK-Blue IFNα/β reporter assay (STAT1-inducible SEAP) for profiling TYK2 pseudokinase (JH2) inhibition; assay type: cell-based; details: 1 ng/mL human recombinant IFNα, SEAP readout, read-out: IFNα (TYK2 inhibitory activity, IC50)
How it was run: (§3)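 Cells were pretreated 60 min with serially diluted compounds, then stimulated with 10 ng/mL human IL-23 for 22-24 hours (STAT3 line) or 1 ng/mL human IFNα for 16-18 h (STAT1 line). SEAP induction read with QUANTI-Blue.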

[6] = test system: IFNγ-stimulated HEK-Blue IFNγ reporter cells; assay: HEK-Blue IFNγ reporter assay (STAT1-inducible SEAP) for determining selectivity; assay type: cell-based; details: 50 ng/mL human recombinant IFNγ, 24 hours, read-out: IFN-γ SEAP selectivity assay IC50
How it was run: as §2

[7] = biological target: T4, TYK2 kinase domain (JH1) (Homo sapiens, UniProt P29597); assay: HTRF-based selectivity assay, TYK2 catalytic domain; assay type: biochemical; details: 20 μM ATP
T4 construct: recombinant purified His or GST-tagged catalytic domain for each enzyme; made in house
T4 sequence (P29597 897-1176 limits assumed): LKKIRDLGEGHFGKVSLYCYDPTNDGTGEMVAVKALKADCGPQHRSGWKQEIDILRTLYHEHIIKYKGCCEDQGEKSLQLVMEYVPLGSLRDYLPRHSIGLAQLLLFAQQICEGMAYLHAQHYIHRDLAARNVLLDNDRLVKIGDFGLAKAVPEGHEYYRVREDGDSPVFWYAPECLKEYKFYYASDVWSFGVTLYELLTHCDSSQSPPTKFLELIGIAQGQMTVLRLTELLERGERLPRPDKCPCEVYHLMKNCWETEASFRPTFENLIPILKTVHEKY

[8] = test system: TYK2 pseudokinase (JH2); IL-23-stimulated HEK-Blue IL-23 cells; assay: HEK-Blue IL-23 reporter assay (STAT3-inducible SEAP) for profiling TYK2 pseudokinase (JH2) inhibition; assay type: cell-based; details: 10 ng/mL human recombinant IL-23, SEAP readout, read-out: IL23 (TYK2 inhibitory activity, IC50)
How it was run: as §3

T1 sequence (P23458 875-1153 limits assumed): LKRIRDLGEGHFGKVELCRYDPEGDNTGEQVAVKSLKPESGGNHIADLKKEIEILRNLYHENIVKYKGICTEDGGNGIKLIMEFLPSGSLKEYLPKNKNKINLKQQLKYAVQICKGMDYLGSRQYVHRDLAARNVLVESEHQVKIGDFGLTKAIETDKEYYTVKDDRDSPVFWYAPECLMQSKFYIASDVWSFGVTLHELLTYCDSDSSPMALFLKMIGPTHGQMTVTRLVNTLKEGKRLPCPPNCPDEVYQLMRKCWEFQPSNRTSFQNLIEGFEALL
T3 sequence (P52333 822-1111 limits assumed): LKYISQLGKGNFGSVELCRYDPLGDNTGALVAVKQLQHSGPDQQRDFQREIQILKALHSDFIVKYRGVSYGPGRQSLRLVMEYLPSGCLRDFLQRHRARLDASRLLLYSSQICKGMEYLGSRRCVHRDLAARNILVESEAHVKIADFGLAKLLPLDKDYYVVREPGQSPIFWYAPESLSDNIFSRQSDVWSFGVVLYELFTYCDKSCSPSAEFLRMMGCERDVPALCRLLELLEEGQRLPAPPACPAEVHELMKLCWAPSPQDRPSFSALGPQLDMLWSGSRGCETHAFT
T2 sequence (O60674 849-1124 limits assumed): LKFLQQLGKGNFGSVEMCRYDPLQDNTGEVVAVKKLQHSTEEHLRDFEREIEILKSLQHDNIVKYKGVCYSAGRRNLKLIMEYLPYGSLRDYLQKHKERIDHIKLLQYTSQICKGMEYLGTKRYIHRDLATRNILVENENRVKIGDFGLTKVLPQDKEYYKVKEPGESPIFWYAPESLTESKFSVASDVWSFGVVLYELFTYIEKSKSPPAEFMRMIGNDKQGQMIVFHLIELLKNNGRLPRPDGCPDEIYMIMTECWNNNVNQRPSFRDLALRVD

Row | SMILES | IC50 [1] [nM] | IC50 [2] [nM] | IC50 [3] [nM] | IC50 [7] [nM] | IC50 [4] [nM] | IC50 [5] [nM] | IC50 [6] [nM] | IC50 [8] [nM]
1 | [2H]C([2H])([2H])NC(=O)c1cnc(NC(=O)C2CC2)cc1Nc1cccc2c1N(C)Cc1cnn(C)c1-2 [Compound 51, 6-(cyclopropanecarboxamido)-4-((1,5-dimethyl-4,5-dihydro-1H-pyrazolo[4,3-c]quinolin-6-yl)amino)-N-(methyl-d3)nicotinamide] | > 1000 | > 1000 | > 1000 | > 1000 | > 1000 | 30 to 300 | > 1000 | < 30
2 | COC(=O)c1cnc(NC(=O)C2CC2)cc1Nc1cccc2c1N(C)Cc1cn(C)nc1-2 [Compound 60, methyl 6-(cyclopropanecarboxamido)-4-((2,5-dimethyl-4,5-dihydro-2H-pyrazolo[4,3-c]quinolin-6-yl)amino)nicotinate] | > 1000 | > 1000 | > 1000 | > 1000 | > 1000 | < 30 | > 1000 | < 30
3 | [2H]C([2H])([2H])NC(=O)c1cnc(N2CCN(C(C)C)C2=O)cc1Nc1cccc2c1N(C)Cc1cn(C)nc1-2 [Compound 61, 4-((2,5-dimethyl-4,5-dihydro-2H-pyrazolo[4,3-c]quinolin-6-yl)amino)-6-(3-isopropyl-2-oxoimidazolidin-1-yl)-N-(methyl-d3)nicotinamide] | > 1000 | > 1000 | > 1000 | > 1000 | > 1000 | 30 to 300 | > 1000 | < 30
4 | [2H]C([2H])([2H])NC(=O)c1nnc(NC(=O)C2CC2)cc1Nc1nccc2c1N(C)Cc1cn(C)nc1-2 [Compound 65, 6-(cyclopropanecarboxamido)-4-((2,5-dimethyl-4,5-dihydro-2H-pyrazolo[4,3-c][1,7]naphthyridin-6-yl)amino)-N-(methyl-d3)pyridazine-3-carboxamide] | > 1000 | > 1000 | > 1000 | > 1000 | > 1000 | < 30 | 30 to 300 | < 30
5 | [2H]C([2H])([2H])NC(=O)c1cnc(NC(=O)C2CC2)cc1Nc1nccc2c1N(C([2H])([2H])[2H])Cc1cn(C)nc1-2 [Compound 66, 6-(cyclopropanecarboxamido)-N-(methyl-d3)-4-((2-methyl-5-(methyl-d3)-4,5-dihydro-2H-pyrazolo[4,3-c][1,7]naphthyridin-6-yl)amino)nicotinamide] | > 1000 | > 1000 | > 1000 | > 1000 | > 1000 | < 30 | 300 to 1000 | < 30

Now from value to molecule, other results behind:

Row | IC50 [1] [nM] | IC50 [2] [nM] | IC50 [3] [nM] | IC50 [7] [nM] | SMILES | IC50 [4] [nM] | IC50 [5] [nM] | IC50 [6] [nM] | IC50 [8] [nM]
6 | > 1000 | > 1000 | > 1000 | > 1000 | [2H]C([2H])([2H])NC(=O)c1nnc(NC(=O)C2CC2)cc1Nc1cccc2c1N(C)Cc1c[nH]nc1-2 [Compound 27, 6-(cyclopropanecarboxamido)-N-(methyl-d3)-4-((5-methyl-4,5-dihydro-2H-pyrazolo[4,3-c]quinolin-6-yl)amino)pyridazine-3-carboxamide] | > 1000 | < 30 | 30 to 300 | < 30
7 | > 1000 | > 1000 | > 1000 | > 1000 | CNC(=O)c1nnc(Nc2ccc(F)cn2)cc1Nc1cccc2c1OCc1cnn(C)c1-2 [Compound 49, 6-((5-fluoropyridin-2-yl)amino)-N-methyl-4-((1-methyl-1,4-dihydrochromeno[4,3-c]pyrazol-6-yl)amino)pyridazine-3-carboxamide] | 300 to 1000 | > 1000 | < 30 | 30 to 300
8 | > 1000 | > 1000 | > 1000 | > 1000 | CNC(=O)c1nnc(NC(=O)C2CC2)cc1Nc1cccc2c1OCc1cnn(C)c1-2 [Compound 50, 6-(cyclopropanecarboxamido)-N-methyl-4-((1-methyl-1,4-dihydrochromeno[4,3-c]pyrazol-6-yl)amino)pyridazine-3-carboxamide] | 30 to 300 | 300 to 1000 | 300 to 1000 | 300 to 1000

From patent US12122785B2, “Substituted pyridines, pyridazines, pyrimidines, and 1,2,4-triazines as TYK2 inhibitors” (Sudo Biosciences Limited, priority 2021, dated 2024)
